Data from the kinase profiling compilation of Christmann-Franck et al. (2016).

Key:
Experiment in all cases: KINOMEscan competition binding
Settings in all cases: compound 10.0 µM
CLK4 (human) = CLK4 (human) (UniProt Q9HAZ1)
FRK (human) = FRK (human) (UniProt P42685)
STK17A (human) = STK17A (human) (UniProt Q9UEE5)
CDK5 (human) = CDK5 (human) (UniProt Q00535)
MERTK (human) = MERTK (human) (UniProt Q12866)
CAMK2G (human) = CAMK2G (human) (UniProt Q13555)
NEK9 (human) = NEK9 (human) (UniProt Q8TD19)
MAPK8 (human) = MAPK8 (human) (UniProt P45983)
CHEK1 (human) = CHEK1 (human) (UniProt O14757)
STK24 (human) = STK24 (human) (UniProt Q9Y6E0)
[1] = target: TYK2 JH1 catalytic (human) (UniProt P29597)
CDK17 (human) = CDK17 (human) (UniProt Q00537)
MARK3 (human) = MARK3 (human) (UniProt P27448)
MAP3K11 (human) = MAP3K11 (human) (UniProt Q16584)
PLK1 (human) = PLK1 (human) (UniProt P53350)
DMPK (human) = DMPK (human) (UniProt Q09013)
MAP4K3 (human) = MAP4K3 (human) (UniProt Q8IVH8)
INSRR (human) = INSRR (human) (UniProt P14616)
PIK3C2B (human) = PIK3C2B (human) (UniProt O00750)
[2] = system: KIT (human), P10721 [V559D]
CSNK1A1L (human) = CSNK1A1L (human) (UniProt Q8N752)
TGFBR2 (human) = TGFBR2 (human) (UniProt P37173)
PAK3 (human) = PAK3 (human) (UniProt O75914)
PRKAA2 (human) = PRKAA2 (human) (UniProt P54646)
[3] = system: FLT3 (human), P36888 [N841I]
[4] = system: ABL1 (human), P00519 [M351T]
AURKB (human) = AURKB (human) (UniProt Q96GD4)
FGFR1 (human) = FGFR1 (human) (UniProt P11362)
CDC42BPG (human) = CDC42BPG (human) (UniProt Q6DT37)
CDC42BPA (human) = CDC42BPA (human) (UniProt Q5VT25)
PIK3CD (human) = PIK3CD (human) (UniProt O00329)
[5] = target: JAK3 JH1 catalytic (human) (UniProt P52333)
INSR (human) = INSR (human) (UniProt P06213)
MST1R (human) = MST1R (human) (UniProt Q04912)
BMPR1A (human) = BMPR1A (human) (UniProt P36894)
DAPK2 (human) = DAPK2 (human) (UniProt Q9UIK4)
STK11 (human) = STK11 (human) (UniProt Q15831)
TLK2 (human) = TLK2 (human) (UniProt Q86UE8)
STK4 (human) = STK4 (human) (UniProt Q13043)
ACVR2A (human) = ACVR2A (human) (UniProt P27037)

Chain of MAP4K3 (human) (Q8IVH8 whole entry, looked up): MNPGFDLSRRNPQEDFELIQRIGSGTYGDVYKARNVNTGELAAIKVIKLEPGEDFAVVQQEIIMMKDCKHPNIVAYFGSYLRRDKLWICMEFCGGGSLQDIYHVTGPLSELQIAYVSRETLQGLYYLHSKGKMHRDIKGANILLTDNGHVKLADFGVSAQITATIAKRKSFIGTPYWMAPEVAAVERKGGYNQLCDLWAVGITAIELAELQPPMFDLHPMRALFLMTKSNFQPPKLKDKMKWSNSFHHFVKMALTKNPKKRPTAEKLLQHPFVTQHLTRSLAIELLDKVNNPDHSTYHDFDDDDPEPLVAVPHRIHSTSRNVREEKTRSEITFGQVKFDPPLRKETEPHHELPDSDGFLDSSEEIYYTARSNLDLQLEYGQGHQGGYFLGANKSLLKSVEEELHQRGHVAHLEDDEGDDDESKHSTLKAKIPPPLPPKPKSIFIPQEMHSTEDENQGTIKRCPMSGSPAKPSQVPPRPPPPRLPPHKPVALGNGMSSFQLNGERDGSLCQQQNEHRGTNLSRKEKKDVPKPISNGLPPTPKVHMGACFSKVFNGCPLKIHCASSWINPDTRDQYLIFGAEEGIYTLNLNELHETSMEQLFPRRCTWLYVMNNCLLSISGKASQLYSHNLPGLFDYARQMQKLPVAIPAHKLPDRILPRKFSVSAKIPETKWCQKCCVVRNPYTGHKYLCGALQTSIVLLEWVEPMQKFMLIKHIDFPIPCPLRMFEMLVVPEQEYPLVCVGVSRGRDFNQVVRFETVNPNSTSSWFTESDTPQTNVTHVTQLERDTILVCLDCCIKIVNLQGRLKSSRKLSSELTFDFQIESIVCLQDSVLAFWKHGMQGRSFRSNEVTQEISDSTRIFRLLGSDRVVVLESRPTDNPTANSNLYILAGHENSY
Chain of NEK9 (human) (Q8TD19 whole entry, looked up): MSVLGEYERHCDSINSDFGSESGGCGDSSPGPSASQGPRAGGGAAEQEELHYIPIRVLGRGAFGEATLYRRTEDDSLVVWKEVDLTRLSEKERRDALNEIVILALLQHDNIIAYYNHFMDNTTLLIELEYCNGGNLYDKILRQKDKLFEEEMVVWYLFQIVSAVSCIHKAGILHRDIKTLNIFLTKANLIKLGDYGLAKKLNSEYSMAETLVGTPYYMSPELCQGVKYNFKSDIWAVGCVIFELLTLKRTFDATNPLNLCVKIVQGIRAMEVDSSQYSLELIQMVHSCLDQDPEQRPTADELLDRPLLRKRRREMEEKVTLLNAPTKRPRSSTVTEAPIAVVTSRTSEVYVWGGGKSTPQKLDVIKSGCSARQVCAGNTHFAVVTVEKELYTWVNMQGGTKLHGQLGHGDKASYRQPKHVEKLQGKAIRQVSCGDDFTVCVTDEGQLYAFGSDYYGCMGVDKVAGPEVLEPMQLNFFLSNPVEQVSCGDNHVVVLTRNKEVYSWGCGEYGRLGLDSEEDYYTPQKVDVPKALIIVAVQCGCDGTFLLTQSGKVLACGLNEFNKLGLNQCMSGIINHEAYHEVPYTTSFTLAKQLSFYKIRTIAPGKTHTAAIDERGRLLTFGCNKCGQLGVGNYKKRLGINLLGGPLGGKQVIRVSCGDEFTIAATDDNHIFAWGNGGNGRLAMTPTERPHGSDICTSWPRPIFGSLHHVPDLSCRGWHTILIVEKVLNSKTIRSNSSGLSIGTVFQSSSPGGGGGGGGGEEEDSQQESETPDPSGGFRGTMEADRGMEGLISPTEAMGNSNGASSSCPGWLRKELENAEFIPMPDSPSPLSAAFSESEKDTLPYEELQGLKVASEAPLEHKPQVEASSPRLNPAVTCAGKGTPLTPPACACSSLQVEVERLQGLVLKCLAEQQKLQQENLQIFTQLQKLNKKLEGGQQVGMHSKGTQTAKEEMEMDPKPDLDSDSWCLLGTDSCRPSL
Chain of CSNK1A1L (human) (Q8N752 whole entry, looked up): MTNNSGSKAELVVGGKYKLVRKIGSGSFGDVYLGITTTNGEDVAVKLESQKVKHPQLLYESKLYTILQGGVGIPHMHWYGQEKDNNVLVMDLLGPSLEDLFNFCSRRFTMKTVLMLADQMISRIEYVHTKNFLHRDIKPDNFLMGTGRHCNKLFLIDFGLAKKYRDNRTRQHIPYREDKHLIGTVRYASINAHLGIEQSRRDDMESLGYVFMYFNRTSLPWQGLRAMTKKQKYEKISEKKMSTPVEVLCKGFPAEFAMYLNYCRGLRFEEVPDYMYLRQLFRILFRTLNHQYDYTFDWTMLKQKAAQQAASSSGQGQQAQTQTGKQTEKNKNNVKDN
Chain of CAMK2G (human) (Q13555 whole entry, looked up): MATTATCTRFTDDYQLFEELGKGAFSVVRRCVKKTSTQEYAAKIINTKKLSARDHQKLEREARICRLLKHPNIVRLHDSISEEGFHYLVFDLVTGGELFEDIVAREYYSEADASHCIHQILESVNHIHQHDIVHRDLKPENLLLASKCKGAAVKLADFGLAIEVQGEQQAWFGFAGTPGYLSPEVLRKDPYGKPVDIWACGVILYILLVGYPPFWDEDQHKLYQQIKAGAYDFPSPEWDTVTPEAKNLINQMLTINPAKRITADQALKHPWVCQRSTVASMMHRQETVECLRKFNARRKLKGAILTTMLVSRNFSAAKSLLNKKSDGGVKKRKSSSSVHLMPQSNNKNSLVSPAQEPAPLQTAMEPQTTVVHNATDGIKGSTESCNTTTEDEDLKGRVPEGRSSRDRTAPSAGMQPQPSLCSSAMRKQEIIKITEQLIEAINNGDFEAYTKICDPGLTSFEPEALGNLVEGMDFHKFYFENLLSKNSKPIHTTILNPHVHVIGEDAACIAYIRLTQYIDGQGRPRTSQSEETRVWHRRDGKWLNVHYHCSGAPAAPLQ
Chain of BMPR1A (human) (P36894 whole entry, looked up): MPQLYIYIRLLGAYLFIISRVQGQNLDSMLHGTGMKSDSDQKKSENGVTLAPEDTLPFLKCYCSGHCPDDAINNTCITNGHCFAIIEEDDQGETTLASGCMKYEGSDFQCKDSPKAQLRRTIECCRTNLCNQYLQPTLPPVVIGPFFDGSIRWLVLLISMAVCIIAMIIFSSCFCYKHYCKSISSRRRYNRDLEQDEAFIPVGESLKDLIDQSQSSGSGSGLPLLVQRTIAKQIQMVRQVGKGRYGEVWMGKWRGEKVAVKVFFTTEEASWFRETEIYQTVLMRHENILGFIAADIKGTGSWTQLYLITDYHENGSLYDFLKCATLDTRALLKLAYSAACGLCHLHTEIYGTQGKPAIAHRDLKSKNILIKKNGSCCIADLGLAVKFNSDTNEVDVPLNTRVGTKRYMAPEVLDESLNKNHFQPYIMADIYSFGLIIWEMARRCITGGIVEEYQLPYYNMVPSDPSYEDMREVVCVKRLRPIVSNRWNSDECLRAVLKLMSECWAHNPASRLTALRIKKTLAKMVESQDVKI
Chain of TLK2 (human) (Q86UE8 whole entry, looked up): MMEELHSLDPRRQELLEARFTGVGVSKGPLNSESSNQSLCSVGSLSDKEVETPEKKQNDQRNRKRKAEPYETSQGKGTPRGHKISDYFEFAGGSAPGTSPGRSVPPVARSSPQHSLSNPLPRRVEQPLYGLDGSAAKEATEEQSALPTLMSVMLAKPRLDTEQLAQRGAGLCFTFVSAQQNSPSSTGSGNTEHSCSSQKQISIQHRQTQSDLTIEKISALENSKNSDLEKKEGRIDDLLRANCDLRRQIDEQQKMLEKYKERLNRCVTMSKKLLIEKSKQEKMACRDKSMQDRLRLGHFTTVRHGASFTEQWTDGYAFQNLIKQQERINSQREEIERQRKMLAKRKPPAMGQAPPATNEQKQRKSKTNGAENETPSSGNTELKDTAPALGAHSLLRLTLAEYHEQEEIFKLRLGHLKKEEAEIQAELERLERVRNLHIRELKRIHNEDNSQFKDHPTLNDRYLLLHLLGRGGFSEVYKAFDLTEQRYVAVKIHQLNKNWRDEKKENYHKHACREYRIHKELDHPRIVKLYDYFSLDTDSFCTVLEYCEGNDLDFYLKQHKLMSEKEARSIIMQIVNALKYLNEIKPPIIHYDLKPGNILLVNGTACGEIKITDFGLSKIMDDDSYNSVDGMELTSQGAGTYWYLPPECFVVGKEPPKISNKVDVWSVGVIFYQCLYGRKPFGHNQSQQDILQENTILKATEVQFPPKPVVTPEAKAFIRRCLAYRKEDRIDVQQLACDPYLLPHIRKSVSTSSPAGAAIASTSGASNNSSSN
Chain of MAPK8 (human) (P45983 whole entry, looked up): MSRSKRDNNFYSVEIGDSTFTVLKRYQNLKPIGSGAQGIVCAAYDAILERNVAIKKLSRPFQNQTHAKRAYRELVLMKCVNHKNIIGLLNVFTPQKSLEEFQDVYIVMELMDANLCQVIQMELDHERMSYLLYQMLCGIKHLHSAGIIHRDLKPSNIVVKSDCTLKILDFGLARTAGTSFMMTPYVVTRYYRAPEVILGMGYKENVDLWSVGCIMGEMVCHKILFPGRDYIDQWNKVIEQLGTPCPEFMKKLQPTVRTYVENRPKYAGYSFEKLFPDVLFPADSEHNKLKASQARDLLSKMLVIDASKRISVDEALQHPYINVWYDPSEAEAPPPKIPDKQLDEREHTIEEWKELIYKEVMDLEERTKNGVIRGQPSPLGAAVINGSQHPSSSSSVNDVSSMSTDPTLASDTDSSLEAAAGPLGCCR
Chain of STK24 (human) (Q9Y6E0 whole entry, looked up): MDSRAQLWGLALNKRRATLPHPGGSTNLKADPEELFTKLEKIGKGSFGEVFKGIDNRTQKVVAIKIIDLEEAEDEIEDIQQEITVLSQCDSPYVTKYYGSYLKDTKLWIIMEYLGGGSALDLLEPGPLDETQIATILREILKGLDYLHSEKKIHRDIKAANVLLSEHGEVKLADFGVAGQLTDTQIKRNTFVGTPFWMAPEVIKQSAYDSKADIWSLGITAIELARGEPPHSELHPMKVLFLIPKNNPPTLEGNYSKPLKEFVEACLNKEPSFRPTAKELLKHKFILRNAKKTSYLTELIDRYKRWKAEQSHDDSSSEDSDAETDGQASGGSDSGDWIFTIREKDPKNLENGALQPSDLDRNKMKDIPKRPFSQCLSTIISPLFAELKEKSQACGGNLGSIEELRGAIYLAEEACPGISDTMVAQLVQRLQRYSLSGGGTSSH

SMILES	kinase still bound, per cent of control (CLK4 (human)) [%]	kinase still bound, per cent of control (FRK (human)) [%]	kinase still bound, per cent of control (STK17A (human)) [%]	kinase still bound, per cent of control (CDK5 (human)) [%]	kinase still bound, per cent of control (MERTK (human)) [%]	kinase still bound, per cent of control (CAMK2G (human)) [%]	kinase still bound, per cent of control (NEK9 (human)) [%]	kinase still bound, per cent of control (MAPK8 (human)) [%]	kinase still bound, per cent of control (CHEK1 (human)) [%]	kinase still bound, per cent of control (STK24 (human)) [%]	kinase still bound, per cent of control [1] [%]	kinase still bound, per cent of control (CDK17 (human)) [%]	kinase still bound, per cent of control (MARK3 (human)) [%]	kinase still bound, per cent of control (MAP3K11 (human)) [%]	kinase still bound, per cent of control (DMPK (human)) [%]	kinase still bound, per cent of control (MAP4K3 (human)) [%]	kinase still bound, per cent of control (INSRR (human)) [%]	kinase still bound, per cent of control (PIK3C2B (human)) [%]	kinase still bound, per cent of control [2] [%]	kinase still bound, per cent of control (CSNK1A1L (human)) [%]	other results
COc1cc(N2CCN(C)CC2)ccc1Nc1nc(N)c(C(=O)c2c(Cl)cccc2Cl)s1	50	43	100	88	87	17	100	81	79	77	90	42	100	96	50	100	100	98	100	100	kinase still bound, per cent of control (PLK1 (human)): 72%; kinase still bound, per cent of control (TGFBR2 (human)): 92%; kinase still bound, per cent of control (PAK3 (human)): 94%; kinase still bound, per cent of control (PRKAA2 (human)): 68%; kinase still bound, per cent of control [3]: 47%; kinase still bound, per cent of control [4]: 84%; kinase still bound, per cent of control (AURKB (human)): 93%; kinase still bound, per cent of control (FGFR1 (human)): 94%; kinase still bound, per cent of control (CDC42BPG (human)): 100%; kinase still bound, per cent of control (CDC42BPA (human)): 100%; kinase still bound, per cent of control (PIK3CD (human)): 98%; kinase still bound, per cent of control [5]: 100%; kinase still bound, per cent of control (INSR (human)): 94%; kinase still bound, per cent of control (MST1R (human)): 96%; kinase still bound, per cent of control (BMPR1A (human)): 100%; kinase still bound, per cent of control (DAPK2 (human)): 86%; kinase still bound, per cent of control (STK11 (human)): 100%; kinase still bound, per cent of control (TLK2 (human)): 93%; kinase still bound, per cent of control (STK4 (human)): 100%
CC[C@@H]1C(=O)N(C)c2cnc(Nc3ccc(C(=O)NC4CCN(C)CC4)cc3OC)nc2N1C1CCCC1	100	100	100	100	100	100	100	100	100	100	100	100	100	100	100	100	100	100	100	100	kinase still bound, per cent of control (ACVR2A (human)): 100%; kinase still bound, per cent of control (TGFBR2 (human)): 100%; kinase still bound, per cent of control (PAK3 (human)): 100%; kinase still bound, per cent of control (PRKAA2 (human)): 100%; kinase still bound, per cent of control [3]: 100%; kinase still bound, per cent of control [4]: 100%; kinase still bound, per cent of control (AURKB (human)): 100%; kinase still bound, per cent of control (FGFR1 (human)): 100%; kinase still bound, per cent of control (CDC42BPG (human)): 100%; kinase still bound, per cent of control (CDC42BPA (human)): 100%; kinase still bound, per cent of control (PIK3CD (human)): 100%; kinase still bound, per cent of control [5]: 100%; kinase still bound, per cent of control (MST1R (human)): 100%; kinase still bound, per cent of control (BMPR1A (human)): 100%; kinase still bound, per cent of control (DAPK2 (human)): 16%; kinase still bound, per cent of control (STK11 (human)): 100%; kinase still bound, per cent of control (TLK2 (human)): 100%; kinase still bound, per cent of control (STK4 (human)): 100%
O=C(NOC[C@H](O)CO)c1ccc(F)c(F)c1Nc1ccc(I)cc1F	89	60	100	100	100	100	82	92	74	88	100	95	91	100	90	87	81	100	74	80	kinase still bound, per cent of control (PLK1 (human)): 72%; kinase still bound, per cent of control (ACVR2A (human)): 80%; kinase still bound, per cent of control (TGFBR2 (human)): 100%; kinase still bound, per cent of control (PAK3 (human)): 100%; kinase still bound, per cent of control (PRKAA2 (human)): 97%; kinase still bound, per cent of control [3]: 78%; kinase still bound, per cent of control (AURKB (human)): 99%; kinase still bound, per cent of control (FGFR1 (human)): 100%; kinase still bound, per cent of control (CDC42BPG (human)): 85%; kinase still bound, per cent of control (CDC42BPA (human)): 100%; kinase still bound, per cent of control (PIK3CD (human)): 40%; kinase still bound, per cent of control [5]: 100%; kinase still bound, per cent of control (INSR (human)): 92%; kinase still bound, per cent of control (MST1R (human)): 78%; kinase still bound, per cent of control (BMPR1A (human)): 100%; kinase still bound, per cent of control (DAPK2 (human)): 100%; kinase still bound, per cent of control (STK11 (human)): 83%; kinase still bound, per cent of control (TLK2 (human)): 98%; kinase still bound, per cent of control (STK4 (human)): 100%
